Experiment: xn = mol fraction of the nth substance listed
Settings: Liquid; for mass density: Vibrating tube method; for speed of sound: Frequency=3 MHz, Pulse-echo method

CCOC(F)(C(F)(F)C(F)(F)C(F)(F)F)C(F)(C(F)(F)F)C(F)(F)F (stereo not given) [2-trifluoromethyl-3-ethoxydodecafluorohexane] + CC(C)OC(C)C
Settings | mass density, x1 = 0.25 [kg/m3] | mass density, x1 = 0.375 [kg/m3] | mass density, x1 = 0.5 [kg/m3] | mass density, x1 = 0.625 [kg/m3] | mass density, x1 = 0.75 [kg/m3] | speed of sound, x1 = 0.25 [m/s] | speed of sound, x1 = 0.375 [m/s] | speed of sound, x1 = 0.5 [m/s] | speed of sound, x1 = 0.625 [m/s] | speed of sound, x1 = 0.75 [m/s]
313.15 K, 50000 kPa | – | – | – | 1451.1 | 1541 | – | – | – | – | –
313.15 K, 60000 kPa | 1111.4 | 1244.1 | 1360.5 | 1464.9 | 1555.4 | 1065.1 | 1009.2 | 967.9 | 946.8 | 921.7
313.15 K, 70000 kPa | 1121.5 | 1255 | 1372.6 | 1477.7 | 1568.7 | – | – | – | – | –
313.15 K, 80000 kPa | 1130.9 | 1265.4 | 1383.8 | 1489.6 | 1581.1 | 1141.4 | 1082.8 | 1039.3 | 1017.4 | 990.1
313.15 K, 90000 kPa | 1139.7 | 1275.3 | 1394.3 | 1500.7 | 1592.6 | – | – | – | – | –
313.15 K, 100000 kPa | 1148 | 1284.4 | 1404.2 | 1511.1 | 1603.5 | 1209.6 | 1148.8 | 1102.9 | 1079.9 | 1050.9
313.15 K, 110000 kPa | 1156 | 1293.2 | 1413.7 | 1521.2 | 1614 | – | – | – | – | –
313.15 K, 120000 kPa | 1163.3 | 1301.3 | 1422.4 | 1530.6 | 1623.6 | – | – | – | – | –
313.15 K, 130000 kPa | 1170.4 | 1309.4 | 1431 | 1539.5 | 1633 | – | – | – | – | –
313.15 K, 140000 kPa | 1177.2 | 1316.8 | 1439 | 1548.1 | 1641.9 | – | – | – | – | –
323.15 K, 100 kPa | 1006.7 | 1127.2 | 1235 | 1332.2 | 1418.1 | 693.3 | 650 | 624.3 | 609.9 | 597.4
323.15 K, 10000 kPa | 1029 | 1152.3 | 1262 | 1360.8 | 1447.4 | – | – | – | – | –
323.15 K, 20000 kPa | 1047.5 | 1173 | 1284.2 | 1384.2 | 1471.7 | 841.6 | 794.7 | 761.3 | 745.2 | 726.1
323.15 K, 30000 kPa | 1063.3 | 1190.5 | 1303.2 | 1404.3 | 1492.5 | – | – | – | – | –
323.15 K, 40000 kPa | 1077.2 | 1206.1 | 1319.9 | 1421.9 | 1510.7 | 952.5 | 901 | 862.9 | 846.1 | 822.8
323.15 K, 50000 kPa | 1089.7 | 1220 | 1334.9 | 1437.6 | 1527.2 | – | – | – | – | –
323.15 K, 60000 kPa | 1101 | 1232.6 | 1348.5 | 1452 | 1542.2 | 1043.6 | 987.7 | 946.9 | 927.8 | 902.5
323.15 K, 70000 kPa | 1111.5 | 1244.2 | 1361 | 1465.1 | 1555.9 | – | – | – | – | –
323.15 K, 80000 kPa | – | – | – | – | – | 1123.2 | 1063 | 1019.6 | – | –

Source: the NIST ThermoML archive (doi:10.1016/j.jct.2018.08.005)
